The text below walks through data of patent publication US20070219180A1, “Muscle Relaxtion Accelerator and Therapeutic Agent for Muscular Tissue Diseases Such as Muscle Relaxation Failure” (priority 2004, published 2007).

The subject of this assay is binding of troponin I to the actin-tropomyosin complex. Nature of the assay: Experiment 4 and comparison example: co-precipitation (binding) of troponin I with the actin-tropomyosin complex in the presence of EGTA. Also noted: species or system swine. The following applies: for Precipitate of troponin I (ratio to the sample without drug): 10 mM EGTA, 100,000×g 120 min 25° C. On the procedure: The actin-tropomyosin complex and the troponin C-I complex are usually detected by analyzing the precipitate obtained by ultracentrifugation of a mixture containing the actin-tropomyosin complex and the troponin C-I complex for 120 minutes at 100,000×g at 25° C. The binding of the troponin C-I complex to the actin-tropomyosin complex in muscle tissues can be confirmed by the detected actin-tropomyosin complex and the detected troponin C-I complex. For example, when a mixture containing the actin-tropomyosin complex and the troponin C-I complex is ultracentrifuged in the presence of EGTA as a calcium chelating agent (in other words, in the absence of calcium ions), the actin-tropomyosin complex and the troponin C-I complex combine each other to precipitate together. Detection of troponin I in the precipitate using SDS-gel electrophoresis allows confirmation that the precipitate contains a complex formed by the actin-tropomyosin complex and the troponin C-I complex.
A precipitate due to binding of the actin-tropomyosin complex and troponin I is usually not formed when a mixture containing the actin-tropomyosin complex, troponin and propranolol (a β-blocker) used as a therapeutic agent for heart failure is ultracentrifuged at 100,000×g for 120 minutes 25° C.
Swine muscle-derived actin, chicken gizzard-derived tropomyosin and swine myocardium-derived troponin used in this experiment were purchased from Sigma-Aldrich Corporation, and other unspecified reagents used in this experiment were purchased from Wako Pure Chemical Industries Ltd.
A 500 μl sample was prepared by adding 4.2 μg of actin, 2.1 μg of tropomyosin and 14 μg of troponin to 500 μl of a reaction solution containing 60 mM KCl, 20 mM MOPS (3-morpholinopropanesulfonic acid), 2 mM of MgCl2, 0.05 μg of pepstatin A, and 15 mM 2-mercaptoethanol. After centrifugation of this sample at 2,000×g for 10 minutes at 25° C., the precipitate was removed and the resulting supernatant was distributed to separate test tubes containing 10 mM of EGTA, and each tube was determined as a test sample.
Each test sample was reacted for 120 minutes at 25° C. and centrifuged at 100,000×g for 120 minutes at 25° C., and the supernatants were removed. After reaction solution was gently added to the removed precipitate so as not to suspend the precipitate, the precipitate was again removed by suction, washed, and determined as a test precipitate.
A sample buffer for polyacrylamide gel electrophoresis (SDS-PAGE) was added to each washed test precipitate and mixed well to suspend the test precipitate. The resulting suspension was electrophoresized on a gel (PAG MINI “No. 1” 10/20) for about 1 hour at 40 mA. After electrophoresis, the suspension was silver-stained using “Daiichi” 2D-silver staining reagent (Daiichi Pure Chemicals Co., Ltd), and washed with distilled water and dried. The amount of precipitate in each silver-stained protein band obtained by gel electrophoresis was quantitated using a densitometer.
The amounts of precipitate of troponin I in the second to fifth test precipitates were calculated as ratios of the amount of precipitate of troponin I in the first test precipitate, which was obtained without the compound (the concentration of the compound was 0 M).
The affinity of troponin I for the actin-tropomyosin complex was measured using the same method as in Experiment 4, but using propranolol (a β-blocker which is used as a therapeutic agent for heart failure) for comparison with the compound in the invention.
A 500 μl sample was prepared by adding 4.2 μg of actin, 2.1 μg of tropomyosin and 14 μg of troponin I to 500 μl of a reaction solution containing 60 mM KCl, 20 mM MOPS (3-morpholinopropanesulfonic acid), 2 mM MgCl2, 0.05 μg of pepstatin A, and 15 mM 2-mercaptoethanol. […]

`CC(C)NCC(O)COc1cccc2ccccc12` (centres unmarked) [Propranolol, propranolol]: the “Precipitate of troponin I (ratio to the sample without drug)” value reads like this: (drug concentration 10^−4 mol) 1.1; (drug concentration 10^−5 mol) 0.9; (drug concentration 10^−6 mol) 1.1; (drug concentration 10^−7 mol) 0.9. Besides, the “Effect on the bonding strength of troponin I to the actin-tropomyosin complex (co-precipitation)” value (ultracentrifugation 100,000×g, 120 minutes, 25° C.) is “does not enhance the bonding strength of troponin to the actin-tropomyosin complex”.
